Measurements from patent US11691962B2 (eXIthera Pharmaceuticals, Inc., priority 2018, dated 2023).

Test: Caco-2 cell permeability assay
Type: in vitro ADME, human
Settings: human, 37° C.; for Papp A→B at 60 min, 10 μM: Caco-2, apical to basolateral; for Papp B→A at 40 min, 10 μM: Caco-2, basolateral to apical
Description: The following procedure was used to determine the ability of a test compound to cross Caco-2 cells (human intestinal epithelial cells derived from a colorectal adenocarcinoma). The cells were seeded at 1×10^5 cells/cm^2 in 96-well Multiscreen™ plates (Millipore). Permeability assays were performed with the cells at days 21-25 post-seeding. Cells are typically used for 15 consecutive passages in culture.
This assay can be performed in either the apical to basolateral (A-B) or basolateral to apical (B-A) direction. The test compound was prepared at 10 μM in HBSS-MES (pH 6.5) or HBSS-HEPES (pH 7.4) with a final DMSO concentration of 1%. The working solution was then centrifuged and the supernatant added to the donor side. The assay plate was incubated at 37° C. with gentle shaking for 60 min or 40 min for the A-B or B-A assay, respectively. Samples were aliquoted from the donor side at time zero and the end point, and from the receiver side at the end point.
Reference compounds, propranolol (highly permeable), labetalol (moderately permeable), ranitidine (poorly permeable), and colchicine (P-glycoprotein substrate) were included in each assay.
Samples are analyzed by HPLC-MS/MS using selected reaction monitoring. The HPLC system consists of a binary LC pump with autosampler, a C-18 column, and a gradient.
The apparent permeability coefficient (Papp) of the test compound (Equation 2) and its recovery (Equation 3) are calculated as follows:
[formula] wherein A is the surface area of the cell monolayer (0.11 cm^2), C is concentration of the test compound expressed as peak area, D denotes donor, and R is receiver. “0”, “mid,” and “end” denote time at zero, mid-point, and end of the incubation, respectively. Δt is the incubation time. V is the volume of the donor or receiver.
This is most likely due to non-specific binding or degradation.

| Papp A→B at 60 min, 10 μM | Papp B→A at 40 min, 10 μM | Compound |
| --- | --- | --- |
| < 10 ×10⁻⁶ cm/s | 31 to 50 ×10⁻⁶ cm/s | CC[C@@H](NC(=O)N1C(=O)[C@H](Cc2ccnc(N)c2)[C@H]1C(=O)N(C)c1nccn1C)c1cccc(C)c1 [Compound 1-80, (2S,3R)-3-((2-aminopyridin-4-yl)methyl)-N2-(1-methyl-1H-imidazol-2-yl)-N1-((R)-1-(3-methylphenyl)propyl)-N2-methyl-4-oxoazetidine-1,2-dicarboxamide] |
| < 10 ×10⁻⁶ cm/s | 11 to 30 ×10⁻⁶ cm/s | CC[C@@H](NC(=O)N1C(=O)[C@H](Cc2ccnc(N)c2)[C@H]1C(=O)N(C)c1cnn(C)c1)c1ccccc1 [Compound 1-88, (2S,3R)-3-((2-aminopyridin-4-yl)methyl)-N2-(1-methyl-1H-pyrazol-4-yl)-N1-((R)-1-phenylpropyl)-N2-methyl-4-oxoazetidine-1,2-dicarboxamide] |
| < 10 ×10⁻⁶ cm/s | < 10 ×10⁻⁶ cm/s | CC[C@@H](NC(=O)N1C(=O)[C@H](Cc2ccnc(N)c2)[C@H]1C(=O)N(C)c1cnn(C)c1)c1ccc(C)nc1 [Compound 1-18, (2S,3R)-3-((2-aminopyridin-4-yl)methyl)-N2-(1-methyl-1H-pyrazol-4-yl)-N1-((R)-1-(6-methylpyridin-3-yl)propyl)-N2-methyl-4-oxoazetidine-1,2-dicarboxamide] |
| < 10 ×10⁻⁶ cm/s | > 50 ×10⁻⁶ cm/s | CC[C@@H](NC(=O)N1C(=O)[C@H](Cc2ccnc(N)c2)[C@H]1C(=O)N(C)c1nccn1C)c1ccccc1Cl [Compound 1-83] |
| < 10 ×10⁻⁶ cm/s | 31 to 50 ×10⁻⁶ cm/s | CC[C@@H](NC(=O)N1C(=O)[C@H](Cc2ccnc(N)c2)[C@H]1C(=O)N(C)c1cscn1)c1ccccc1 [Compound 1-8, (2S,3R)-3-((2-aminopyridin-4-yl)methyl)-N2-(4-thiazolyl)-N1-((R)-1-phenylpropyl)-N2-methyl-4-oxoazetidine-1,2-dicarboxamide] |
| < 10 ×10⁻⁶ cm/s | 31 to 50 ×10⁻⁶ cm/s | CC[C@@H](NC(=O)N1C(=O)[C@H](Cc2ccnc(N)c2)[C@H]1C(=O)N(C)c1nccn1C)c1cccc(Cl)c1 [Compound 1-35, (2S,3R)-3-((2-aminopyridin-4-yl)methyl)-N2-(1-methyl-1H-imidazol-2-yl)-N1-((R)-1-(3-chlorophenyl)propyl)-N2-methyl-4-oxoazetidine-1,2-dicarboxamide] |
| < 10 ×10⁻⁶ cm/s | 11 to 30 ×10⁻⁶ cm/s | CC[C@@H](NC(=O)N1C(=O)[C@H](Cc2cc(C)nc(N)c2)[C@H]1C(=O)N(C)c1cnn(C)c1)c1cccc(Cl)c1 [Compound 1-15, (2S,3R)-3-((2-amino-6-methylpyridin-4-yl)methyl)-N2-(1-methyl-1H-pyrazol-4-yl)-N1-((R)-1-(3-chlorophenyl)propyl)-N2-methyl-4-oxoazetidine-1,2-dicarboxamide] |

The next lines start with the compound.

| Compound | Papp A→B at 60 min, 10 μM | Papp B→A at 40 min, 10 μM |
| --- | --- | --- |
| CC[C@@H](NC(=O)N1C(=O)[C@H](Cc2cc(C)nc(NC)c2)[C@H]1C(=O)N(C)c1ccnn1C)C1CCCCC1 [Compound 1-62, (2S,3R)-3-((2-methylamino-6-methylpyridin-4-yl)methyl)-N2-(1-methyl-1H-pyrazol-5-yl)-N1-((R)-1-cyclohexylpropyl)-N2-methyl-4-oxoazetidine-1,2-dicarboxamide] | 11 to 30 ×10⁻⁶ cm/s | 11 to 30 ×10⁻⁶ cm/s |
| CC[C@@H](NC(=O)N1C(=O)[C@H](Cc2ccnc(N)c2)[C@H]1C(=O)N(C)c1nccn1C)C1CCCCC1 [Compound 1-55, (2S,3R)-3-((2-aminopyridin-4-yl)methyl)-N2-(1-methyl-1H-imidazol-2-yl)-N1-((R)-1-cyclohexylpropyl)-N2-methyl-4-oxoazetidine-1,2-dicarboxamide] | < 10 ×10⁻⁶ cm/s | 31 to 50 ×10⁻⁶ cm/s |
| CC[C@@H](NC(=O)N1C(=O)[C@H](Cc2cc(C)nc(N)c2)[C@H]1C(=O)N(C)c1nccn1C)c1cccc(Cl)c1 [Compound 1-43, (2S,3R)-3-((2-amino-6-methylpyridin-4-yl)methyl)-N2-(1-methyl-1H-imidazol-2-yl)-N1-((R)-1-(3-chlorophenyl)propyl)-N2-methyl-4-oxoazetidine-1,2-dicarboxamide] | < 10 ×10⁻⁶ cm/s | 11 to 30 ×10⁻⁶ cm/s |
| CC[C@@H](NC(=O)N1C(=O)[C@H](Cc2ccnc(N)c2)[C@H]1C(=O)N(C)c1ccn(C)n1)C1CCCCC1 [Compound 1-47, (2S,3R)-3-((2-aminopyridin-4-yl)methyl)-N2-(1-methyl-1H-pyrazol-3-yl)-N1-((R)-1-cyclohexylpropyl)-N2-methyl-4-oxoazetidine-1,2-dicarboxamide] | < 10 ×10⁻⁶ cm/s | 31 to 50 ×10⁻⁶ cm/s |
| CN(C(=O)[C@@H]1[C@@H](Cc2ccnc(N)c2)C(=O)N1C(=O)N[C@@H](C1CCCCC1)C1CC1)c1ccn(C)n1 [Compound 1-58, (2S,3R)-3-((2-aminopyridin-4-yl)methyl)-N2-(1-methyl-1H-pyrazol-3-yl)-N1-((R)-cyclohexyl-cyclopropylmethyl)-N2-methyl-4-oxoazetidine-1,2-dicarboxamide] | 11 to 30 ×10⁻⁶ cm/s | 11 to 30 ×10⁻⁶ cm/s |
| CC[C@@H](NC(=O)N1C(=O)[C@H](Cc2cc(C)nc(N)c2)[C@H]1C(=O)N(C)c1ccn(C)n1)c1cccc(C)c1 [Compound 1-22, (2S,3R)-3-((2-amino-6-methylpyridin-4-yl)methyl)-N2-(1-methyl-1H-pyrazol-3-yl)-N1-((R)-1-(3-methylphenyl)propyl)-N2-methyl-4-oxoazetidine-1,2-dicarboxamide] | < 10 ×10⁻⁶ cm/s | 11 to 30 ×10⁻⁶ cm/s |
| CC[C@@H](NC(=O)N1C(=O)[C@H](Cc2cc(C)nc(N)c2)[C@H]1C(=O)N(C)c1ccnn1C)C1CCCCC1 [Compound 1-67, (2S,3R)-3-((2-amino-6-methylpyridin-4-yl)methyl)-N2-(1-methyl-1H-pyrazol-5-yl)-N1-((R)-1-cyclohexylpropyl)-N2-methyl-4-oxoazetidine-1,2-dicarboxamide] | 11 to 30 ×10⁻⁶ cm/s | 31 to 50 ×10⁻⁶ cm/s |
| CC[C@@H](NC(=O)N1C(=O)[C@H](Cc2cc(C)nc(N)c2)[C@H]1C(=O)N(C)c1ccnn1C)c1ccc(C)c(C)c1 [Compound 1-152, (2S,3R)-3-((2-amino-6-methylpyridin-4-yl)methyl)-N2-(1-methyl-1H-pyrazol-5-yl)-N1-((R)-1-(3,4-dimethylphenyl)propyl)-N2-methyl-4-oxoazetidine-1,2-dicarboxamide] | < 10 ×10⁻⁶ cm/s | 11 to 30 ×10⁻⁶ cm/s |
| CC[C@@H](NC(=O)N1C(=O)[C@H](Cc2ccnc(N)c2)[C@H]1C(=O)N(C)c1ccnn1C)C1CCCCC1 [Compound 1-63, (2S,3R)-3-((2-aminopyridin-4-yl)methyl)-N2-(1-methyl-1H-pyrazol-5-yl)-N1-((R)-1-cyclohexylpropyl)-N2-methyl-4-oxoazetidine-1,2-dicarboxamide] | 11 to 30 ×10⁻⁶ cm/s | 31 to 50 ×10⁻⁶ cm/s |
| CC[C@@H](NC(=O)N1C(=O)[C@H](Cc2cc(C)nc(N)c2)[C@H]1C(=O)N(C)c1nccn1C)c1cc(F)ccc1F [Compound 1-137, (2S,3R)-3-((2-amino-6-methylpyridin-4-yl)methyl)-N2-(1-methyl-1H-imidazol-2-yl)-N1-((R)-1-(2,5-difluorophenyl)propyl)-N2-methyl-4-oxoazetidine-1,2-dicarboxamide] | < 10 ×10⁻⁶ cm/s | 11 to 30 ×10⁻⁶ cm/s |
| CC[C@@H](NC(=O)N1C(=O)[C@H](Cc2cc(C)nc(N)c2)[C@H]1C(=O)N(C)c1ccnn1C)c1ccc(F)c(F)c1 [Compound 1-158, (2S,3R)-3-((2-amino-6-methylpyridin-4-yl)methyl)-N2-(1-methyl-1H-pyrazol-5-yl)-N1-((R)-1-(3,4-difluorophenyl)propyl)-N2-methyl-4-oxoazetidine-1,2-dicarboxamide] | < 10 ×10⁻⁶ cm/s | 11 to 30 ×10⁻⁶ cm/s |
| CC[C@@H](NC(=O)N1C(=O)[C@H](Cc2ccnc(NC)c2)[C@H]1C(=O)N(C)c1nccn1C)c1cccc(Cl)c1 [Compound 1-41, (2S,3R)-3-((2-methylaminopyridin-4-yl)methyl)-N2-(1-methyl-1H-imidazol-2-yl)-N1-((R)-1-(3-chlorophenyl)propyl)-N2-methyl-4-oxoazetidine-1,2-dicarboxamide] | < 10 ×10⁻⁶ cm/s | 31 to 50 ×10⁻⁶ cm/s |
| CC(C)[C@@H](NC(=O)N1C(=O)[C@H](Cc2ccnc(N)c2)[C@H]1C(=O)N(C)c1ccn(C)n1)C1CCCCC1 [Compound 1-57, (2S,3R)-3-((2-aminopyridin-4-yl)methyl)-N2-(1-methyl-1H-pyrazol-3-yl)-N1-((R)-1-cyclohexyl-2-methylpropyl)-N2-methyl-4-oxoazetidine-1,2-dicarboxamide] | 11 to 30 ×10⁻⁶ cm/s | 11 to 30 ×10⁻⁶ cm/s |
| CC[C@@H](NC(=O)N1C(=O)[C@H](Cc2ccnc(N)c2)[C@H]1C(=O)N(C)c1cscn1)c1cccc(Cl)c1 [Compound 1-17, (2S,3R)-3-((2-aminopyridin-4-yl)methyl)-N2-(4-thiazolyl)-N1-((R)-1-(3-chlorophenyl)propyl)-N2-methyl-4-oxoazetidine-1,2-dicarboxamide] | 11 to 30 ×10⁻⁶ cm/s | 11 to 30 ×10⁻⁶ cm/s |
